These results are taken from US11208413B2, “Pyrimidopyrimidinones useful as wee-1 kinase inhibitors” (ALMAC DISCOVERY LIMITED, priority 2017, dated 2021).

Values after ≈ are worked out from the molar mass of the structure shown. Where two headings read alike, the source gives them in different places.

The subject of series [1] is pCDC2. Briefly: Wee-1 potency in cells (pCDC2 value). The class given is cell-based.
The target of series [2] is Wee-1 kinase (Homo sapiens, UniProt P30291). Kind of series: Wee-1 kinase inhibitory effect (Wee-1 IC50). It is filed as biochemical. The following applies: read-out: Wee1 IC50.
A short description of series [3]: Kinetic solubility. It is filed as physicochemical. Conditions: kinetic from dmso stock. How it is done: (§1) The test methods employed to determine Wee-1 kinase inhibitory effect, Wee-1 potency in cells and kinetic solubility were the same as those taught in WO 2015/092431 (see page 350 to 358). The other test methods employed were as follows: • i. Determination of Caco-2 permeability at pH 6.5 (pH7.4 for Comparative Example 6) was carried out at Cyprotex Ltd using standard protocols and SOPs. • ii. […] Dosing was as follows: single oral dose 5 mg/kg; single intravenous dose 1 mg/kg. • iii. Determination of pharmacokinetic parameters (CUT1/2/AUC/F %) in male Sprague-Dawley rats on Comparative Example 18 was carried out at BioDuro using standard protocols and SOPs. Dosing was as follows: oral dosing 5 mg/kg; intravenous dosing 1 mg/kg • iv. […] Dosing was as follows: repeated oral dose of 30 mg/kg, once a day for 7 days. Concentrations were measured at 4 h post dose on day 7. • v. Determination of tumor:plasma concentration ratio in the tumor-bearing mouse was carried out at Axis Bioservices Ltd using standard protocols and SOPs. Dosing was as follows: single oral dose of 30 mg/kg. • vi. Determination of CYP3A4/5 time-dependent inhibition (CYP3A4/5 IC50 shift value) was carried out at Cyprotex Ltd using standard protocols and SOPs. The in-vitro test system was: pooled human liver microsomes; a 30-min preincubation step with and without NADPH was included to observe the IC50 shift. • vii. Determination of the formation of reactive metabolites was carried out at Admescope Ltd using standard protocols and SOPs. The in-vitro test system was: human hepatocytes; the duration of incubation was: 2 hours; the technique for metabolite analysis was: LC-MS/MS.

Series [4] can be described thus: Caco-2 permeability (Papp A-B). Conditions: human. It is filed as in vitro ADME. How it is done: as §1
(Caco-2 cells form a polarised layer with tight junctions and transporters.)

Series [5] deals with human hepatocytes. Briefly: Formation of reactive metabolites in human hepatocytes. The class given is in vitro ADME. The following applies: 2 hours incubation, LC-MS/MS. How it is done:
as §1, with “Determination of the formation of reactive metabolites was carried out at Admescope Ltd using standard protocols and SOPs. The in-vitro test system was: human hepatocytes; the duration of incubation was: 2 hours; the technique for metabolite analysis was: LC-MS/MS.” left out

A short description of series [6]: Tumor:plasma concentration ratio in tumor-bearing mouse. The class given is in vivo. The following applies: single oral dose 30 mg/kg, read-out: Mouse tissue distribution tumor/plasma ratio. How it is done: as §1, with “Determination of the formation of reactive metabolites was carried out at Admescope Ltd using standard protocols and SOPs. The in-vitro test system was: human hepatocytes; the duration of incubation was: 2 hours; the technique for metabolite analysis was: LC-MS/MS.” left out

Series [7] can be described thus: Solubility in fasted state simulated gastric fluid (FaSSGF). It is filed as physicochemical.
Series [8] in a line: Chemical stability in solution. It is filed as physicochemical. Conditions: Buffer at pH 7.4 and in DMSO.
Series [9] is described as follows: Brain:plasma concentration ratio in healthy mouse. It is filed as in vivo. The following applies: oral 30 mg/kg once a day for 7 days, 4 h post dose on day 7, read-out: Mouse tissue distribution brain/plasma ratio. How it is done: as §1, with “Determination of the formation of reactive metabolites was carried out at Admescope Ltd using standard protocols and SOPs. The in-vitro test system was: human hepatocytes; the duration of incubation was: 2 hours; the technique for metabolite analysis was: LC-MS/MS.” left out

A short description of series [10]: Rat pharmacokinetics (CL, T1/2, AUC, F %). It is filed as in vivo. Conditions: male Sprague-Dawley rats; for clearance: single intravenous dose 1 mg/kg, plasma clearance, read-out: Rat PK CL; for AUC(0-inf): single oral dose 5 mg/kg, plasma exposure, read-out: Rat PK AUCinf; for half-life / bioavailability: plasma, intravenous 1 mg/kg; for half-life: elimination half-life, read-out: Rat PK T1/2 (converted); for bioavailability: oral 5 mg/kg, oral bioavailability, read-out: Rat PK F %. How it is done: as §1

Series [11] concerns CYP3A4/5. Briefly: CYP3A4/5 time-dependent inhibition (IC50 shift). It is filed as in vitro ADME. The following applies: pooled human liver microsomes, 30-min preincubation with and without NADPH. How it is done: as §1, with “Determination of the formation of reactive metabolites was carried out at Admescope Ltd using standard protocols and SOPs. The in-vitro test system was: human hepatocytes; the duration of incubation was: 2 hours; the technique for metabolite analysis was: LC-MS/MS.” left out
(Liver microsomes are a subcellular fraction often used to study metabolism.)

[12] abbreviates: pH 6.5, read-out: caco-2 Papp A-B pH 6.5.

Wee-1 kinase, sequence (P30291 whole entry): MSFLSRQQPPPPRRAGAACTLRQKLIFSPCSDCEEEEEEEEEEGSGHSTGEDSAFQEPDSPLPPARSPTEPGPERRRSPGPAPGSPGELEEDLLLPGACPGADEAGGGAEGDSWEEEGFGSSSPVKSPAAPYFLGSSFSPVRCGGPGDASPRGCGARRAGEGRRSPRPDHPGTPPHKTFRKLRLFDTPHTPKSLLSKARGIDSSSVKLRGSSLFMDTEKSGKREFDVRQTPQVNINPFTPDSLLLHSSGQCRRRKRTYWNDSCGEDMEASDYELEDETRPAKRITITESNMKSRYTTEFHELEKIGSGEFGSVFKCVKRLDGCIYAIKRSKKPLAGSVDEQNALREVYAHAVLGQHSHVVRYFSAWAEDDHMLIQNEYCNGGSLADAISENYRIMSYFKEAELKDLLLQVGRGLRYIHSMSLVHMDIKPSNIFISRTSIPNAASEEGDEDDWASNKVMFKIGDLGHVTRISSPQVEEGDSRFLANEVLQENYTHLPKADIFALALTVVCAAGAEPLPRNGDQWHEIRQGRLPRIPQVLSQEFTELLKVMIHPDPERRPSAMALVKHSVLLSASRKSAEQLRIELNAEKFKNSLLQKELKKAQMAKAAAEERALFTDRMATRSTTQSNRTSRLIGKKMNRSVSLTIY

Broadly, the EC50 is the concentration giving half of the maximal effect. A high value points to weaker potency. Broadly, the IC50 is the concentration needed to halve the response being measured. By solubility (kinetic) is commonly meant solubility judged after dilution from a stock solution rather than from solid. For `CN1CCC(c2ccc(Nc3ncc4c(n3)N(C)CN(c3c(Cl)cccc3Cl)C4=O)cc2)CC1` [CE 95], the EC50 in series [1] came to 378 nM. The IC50 in series [2] was found to be 7.9 nM. This molecule registered a solubility (kinetic) in series [3] of 123 µM (≈ 61.2 µg/mL).
Taken in the same sequence, the figures for `COc1cc(Nc2ncc3c(n2)N(C)CN(c2c(Cl)cccc2Cl)C3=O)ccc1C1CCN(C)CC1` [CE 183] were 502 nM, 3.1 nM and 60 µM (≈ 31.6 µg/mL).
Broadly, the Papp A→B is the apparent permeability from the apical to the basolateral side of a cell layer. `Cc1cc(Nc2ncc3c(n2)N(C)CN(c2c(Cl)cccc2Cl)C3=O)ccc1C1CCN(C)CC1` [Example 1, 3-(2,6-dichlorophenyl)-1-methyl-7-((3-methyl-4-(1-methylpiperidin-4-yl)phenyl)amino)-2,3-dihydropyrimido[4,5-d]pyrimidin-4(1H)-one]: the Papp A→B in series [4] (setting [12]) was 8.9 ×10⁻⁶ cm/s. The Reactive metabolite detected entry in [5] is given as “no”. The Kp in series [6] amounted to 4. For the same molecule, the “solubility in fasted state simulated gastric fluid (FaSSGF)” value in series [7] is reported as “improved solubility”. The “chemical stability in solution” value in series [8] is listed as “improved chemical stability in solution”. Further, the Kp at 4 h in series [9] is 0.69. Moreover, in [10], the clearance was 14 mL/min/kg, the AUC(0-inf) is 1320 ng·h/mL, the half-life is 4.5 h and the bioavailability was 35%. The same molecule showed a solubility (kinetic) in series [3] of 215 µM (≈ 110 µg/mL).
In turn, `Cc1cc(Nc2ncc3c(n2)N(C)CN(c2c(C)cccc2Cl)C3=O)ccc1C1CCN(C)CC1` [CE 1, 3-(2-chloro-6-methylphenyl)-1-methyl-7-((3-methyl-4-(1-methylpiperidin-4-yl)phenyl)amino)-2,3-dihydropyrimido[4,5-d]pyrimidin-4(1H)-one] registered an EC50 in series [1] of 695 nM. For the same molecule, the half-maximal inhibitory concentration (IC50) in series [2] worked out at 2.8 nM. In [3], the kinetic solubility is 189 µM (≈ 92.8 µg/mL).
For the molecule `Cc1cc(Nc2ncc3c(n2)N(C)CN(c2c(Cl)cccc2Cl)C3=O)ccc1C1=CCN(C)CC1` [CE 178], the EC50 in [1] is 371 nM. The Papp A→B in series [4] (setting [12]) worked out at 8.1 ×10⁻⁶ cm/s. The IC50 in series [2] worked out at 3.2 nM. The molecule also yielded a kinetic solubility in [3] of 55 µM (≈ 28 µg/mL).
Consider `CN1CCC(c2ccc(Nc3ncc4c(n3)N(C)CN(c3c(Cl)cccc3Cl)C4=O)cc2CO)CC1` [CE 165], for which the EC50 in series [1] was determined as 347 nM. Further, the Papp A→B in [4] (setting [12]) came to 0.3 ×10⁻⁶ cm/s. Further, in series [10], the clearance amounted to 27 mL/min/kg, the AUC(0-inf) was found to be 397 ng·h/mL, the half-life is 2.1 h and the bioavailability was 8%. Also, the IC50 in series [2] came to 3.1 nM. This molecule also gave a solubility (kinetic) in series [3] of 194 µM (≈ 102 µg/mL).
Molecule `Cc1cc(Nc2ncc3c(n2)N(C)CN(c2c(Cl)cccc2Cl)C3=O)ccc1C1CCNCC1` [CE 18] displayed an EC50 in series [1] of 223 nM. For the same molecule, the Papp A→B in [4] (setting [12]) came out at 0.3 ×10⁻⁶ cm/s. Also, in series [10], the clearance was found to be 48 mL/min/kg, the AUC(0-inf) was determined as 120 ng·h/mL and the bioavailability stood at 7%. For the same molecule, the IC50 in series [2] was found to be 3.7 nM. Further, the kinetic solubility in series [3] was 200 µM (≈ 99.5 µg/mL).
Molecule `Cc1cc(Nc2ncc3c(n2)N(C)CN(c2c(Cl)cccc2Cl)C3=O)ccc1N1CCNCC1` [CE 6] displayed an EC50 in series [1] of 223 nM. The Papp A→B in series [4] (pH 7.4, read-out: caco-2 Papp A-B (pH 7.4)) amounted to 6.6 ×10⁻⁶ cm/s. Moreover, the “CYP3A4/5 IC50 shift” value in [11] was 2.3-3.0. The Reactive metabolite detected entry in [5] was “yes”. For the same molecule, the Kp in series [6] is 5.7. For the same molecule, the Kp at 4 h in series [9] was determined as 0.16. Moreover, in series [10], the clearance was 26 mL/min/kg, the AUC(0-inf) is 1360 ng·h/mL, the half-life is 3.7 h and the bioavailability was 41%. Also, the IC50 in series [2] was 2.7 nM. This molecule also came in with a solubility (kinetic) in series [3] of 170 µM (≈ 84.7 µg/mL).
